The values that follow come from patent US20110015135A1, “Antitumoral Treatments” (Pharma Mar S.A., priority 2008, published 2011).

Assay [1] deals with HT29 cell line. Kind of assay: cells. On the procedure: (§1) Experiments were performed in triplicate.
Assay [2] deals with DLD1 cell line. Kind of assay: cells. On the procedure: as §1
In assay [3] the test system is MCF7 cell line. Kind of assay: cells. The procedure: as §1
(§2) a. In the first set of assays, ICso values were determined for each drug after 72 hours of drug exposure in each of the tumor cell lines.

The test system of assay [4] is MDA-MB-435 cell line. Description: cells. On the procedure:
as §1, §2

In assay [5] the test system is MDA-MB-231 cell line. Kind of assay: cells. On the procedure: as §1, §2
Assay [6] has as its system DV90 cell line. Kind of assay: cells. It is filed as cell-based, human. The procedure: (§3) a. […] Experiments were performed in triplicate.
In assay [7] the test system is A549 cell line. Description: cells. It is filed as cell-based, human. To be noted: 72 hours of drug exposure. On the procedure: as §3
The test system of assay [8] is HOP62 cell line. Kind of assay: cells. It is filed as cell-based, human. The procedure: as §3
For assay [9], the system named is colon (HT-29). The note with it: reported in EP 610.078; cited from earlier work.
Assay [10] has as its system non-small cell lung (A549). To be noted: reported in EP 610.078; cited from earlier work.
The test system of assay [11] is mouse leukemia (P388). The note with it: reported in EP 610.078; cited from earlier work.
The mark [12] stands for this setting: HT29, 72 hours of drug exposure.
The mark [13] stands for this setting: DLD1, 72 hours of drug exposure.
[14] abbreviates: MCF7, 72 hours of drug exposure.
Where [15] appears, read: MDA-MB-435, 72 hours of drug exposure.
[16] abbreviates: MDA-MB-231, 72 hours of drug exposure.

The term IC50 denotes the midpoint of a concentration-inhibition curve. In the case of `N.N.[Cl][Pt][Cl]` [Cisplatin], the IC50 in [1] (setting [12]) turned out to be 6600 nM; in assay [2] (setting [13]) it was 24800 nM; in assay [3] (setting [14]), 16500 nM; in [4] (setting [15]) it was 2640 nM; in [5] (setting [16]), 8250 nM; in assay [6] (72 hours of drug exposure), 16500 nM. The IC50 in assay [7] and in assay [8] (72 hours of drug exposure) was 8250 nM each time.
Regarding Kahalalide F, the “in vitro activity” value in assay [9], in assay [10] and in assay [11] was “micromolar activity” throughout.
For `C/C=C1\NC(=O)[C@H](Cc2ccccc2)NC(=O)[C@@H](C(C)C)NC(=O)[C@@H]([C@@H](C)CC)NC(=O)[C@H](NC(=O)[C@H](NC(=O)[C@H](CCCN)NC(=O)[C@H]2CCCN2C(=O)[C@H](NC(=O)[C@@H](NC(=O)[C@@H](NC(=O)[C@H](NC(=O)CC[C@@H](C)CC)C(C)C)[C@@H](C)O)C(C)C)C(C)C)[C@@H](C)CC)[C@@H](C)OC(=O)[C@H](C(C)C)NC1=O` [PM02734, (4S)-MeHex-D-Val-L-Thr-L-Val-D-Val-D-Pro-L-Orn-D-allo-Ile-cyclo(D-allo-Thr-D-allo-Ile-D-Val-L-Phe-Z-Dhb-L-Val)], the IC50 in [1] (setting [12]) came to 550 nM; in assay [2] (setting [13]) it was 350 nM; in assay [3] (setting [14]), 600 nM; in assay [4] (setting [15]), 500 nM; in assay [5] (setting [16]) it was 6500 nM; in assay [6] (72 hours of drug exposure), 300 nM. Further, the results for the 50% inhibitory concentration (IC50) in assay [7] and in [8] (72 hours of drug exposure) were 200 nM and 4000 nM, respectively.
Regarding `Nc1ccn([C@@H]2O[C@H](CO)[C@@H](O)C2(F)F)c(=O)n1` [Gemcitabine], the IC50 in assay [1] (setting [12]) was determined as 550 nM; in [2] (setting [13]), 2000 nM; in [3] (setting [14]), 900 nM; in [4] (setting [15]) it was 40 nM; in [5] (setting [16]), 1000 nM; in [6] (72 hours of drug exposure) it was 400 nM. The IC50 came to 4 nM in [7] and 750 nM in [8] (72 hours of drug exposure).
Take `CC(=O)O[C@H]1C(=O)[C@@]2(C)[C@H]([C@H](OC(=O)c3ccccc3)[C@]3(O)C[C@H](OC(=O)[C@H](O)[C@@H](NC(=O)c4ccccc4)c4ccccc4)C(C)=C1C3(C)C)[C@]1(OC(C)=O)CO[C@@H]1C[C@@H]2O` [Paclitaxel]: the IC50 in [1] (Homo sapiens, HT-29, 72 h) was 10 nM; in assay [2] (Homo sapiens, DLD-1, 72 h), 40 nM; in [3] (Homo sapiens, MCF7, 72 h) it was 7.5 nM; in assay [4] (Homo sapiens, MDA-MB-435, 72 h), 25 nM; in assay [5] (Homo sapiens, MDA-MB-231, 72 h), 25 nM; in assay [6] (Homo sapiens, DV-90, 72 hours of drug exposure), 30 nM. Besides, the IC50 in assay [7] (Homo sapiens) was found to be 7 nM; in assay [8] (Homo sapiens, HOP-62, 72 hours of drug exposure), 40 nM.
